Patent US20150238401A1, “PROPYL-PHENYL-ETHER DERIVATIVE, AND MELANOGENESIS INHIBITOR, SKIN-LIGHTENING AGENT, ANTIMICROBIAL AGENT AND COSMETIC CONTAINING SAID PROPYL-PHENYL-ETHER DERIVATIVE” (SEIWA KASEI COMPANY, LIMITED, priority 2012, published 2015)

Key:
[1] = test system: Escherichia coli, Pseudomonas aeruginosa, Staphylococcus aureus and Candida albicans; experiment: Antimicrobial test on SCD agar medium containing the sample; format: cell-based; details: 12 specimens per sample (3.0%, 1.0%, 0.5% x four microorganisms), 30° C., 7 days, visual
Method: The propyl-phenyl-ether derivative of the present invention was evaluated for an antimicrobial test using four bacteria: Escherichia coli, Pseudomonas aeruginosa, Staphylococcus aureus and Candida albicans (use of ATCC strain) according to the following procedure. As a comparative compound, 1,2-pentandiol was used.
(1) Into a test tube containing 1.0 g of Tween 80 (polyoxyethylene sorbitan monooleate) added, 0.3 g, 0.1 g or 0.05 g of various samples were added, and SCD (Soybean Casein Digest) agar medium was added each in an amount of about 10 mL so as to give final concentrations of 3.0%, 1.0% and 0.5%, and stirred thoroughly with Vortex. Thereafter, the sample-containing medium was sterilized by high-pressure steam sterilization (for 15 minutes at 121° C.), cooled down to 45° C., the medium was poured gently onto a petri dish sterilized previously, and spread over the whole petri dish having signage of 4-section on the outer surface of the bottom, and allowed to stand still to solidify the medium. (2) Thereafter, various bacterium solutions of which number of bacteria had been previously regulated to 1.0×10^4 to 5.0×10^4 cfu/mL were inoculated on the sample-containing medium prepared in (1), each one bacterium for one section of the petri dish, each in an amount of 10 μL on four places (three concentrations are applied to four kinds of bacteria for each sample, that is, 12 specimens per sample). (3) These were cultured in a 30° C. thermostat bath for 7 days. (4) The presence or absence of bacteria was determined visually.
The results are classified by the following criteria and shown in Table 4. • The number of specimens confirming bacteria was 10 or more: Δ • The number of specimens confirming bacteria was 6 to 9: ◯ • The number of specimens confirming bacteria was 5 or less: ⊚

[2] = test system: B16 melanoma 4A5 cell; experiment: Melanogenesis inhibiting test (theophylline-induced melanine production); format: cell-based; details: B16 mouse melanoma 4A5, theophylline 1.0 mmol/L, 3 days culture, N=4; for IC40: B16 melanoma 4A5, 72 h, read-out: Judgment: sample concentration showing the melanogenesis inhibiting ratio of 40% or more
Method: As a test for a skin-lightening effect, evaluation of the action of B16 melanoma 4A5 cell on theophylline-induced melanine production was carried out on propyl-phenyl-ether derivatives of the present invention, according to the following procedure. (1) B16 mouse melanoma 4A5 strain was sowed onto a 48-well plate at a cell density of 8.0×10^3 cells/well. (2) Culturing was performed for 24 hours with Dulbecco's Modified Eagle's medium (manufactured by SIGMA. Hereinafter, abbreviated as D-MEM) containing 10% fetal bovine serum (manufactured by Nichirei Biosciences Inc.). […] (3) After culturing for 3 days in the co-existence of a sample, the medium was removed using an aspirator. Then, after distilled water was added, cells were broken by an ultrasonic wave. (4) Thereafter, the amount of protein was determined using BCA protein assay kit (manufactured by Thermo Fisher Scientific Inc.), and the produced amount of melanine was measured by an alkali solubilizing method described below. [Alkali Solubilizing Method] To the cell-destructed solution was added sodium hydroxide so as to give a final concentration of 1 mol/L and the mixture was dissolved by heating (60° C., 30 minutes), then, the absorbance at 450 nm was measured using a micro plate reader. The melanine amount was calculated from a calibration curve made using synthetic melanine (SIGMA) as a standard. The melanine amount per unit protein was calculated by dividing the melanine amount by the protein amount. (5) The melanine production suppressing rate was calculated according to the following formula. Melanine production suppressing rate (%)=[1−(A−B)/(C−B)]×100 [wherein, A represents the melanine amount per unit protein (g/g) in adding a sample, B represents the melanine amount per unit protein (g/g) in the normal group, and C represents the melanine amount per unit protein (g/g) in the control group.] In the above, Normal group is a case of theophylline (−; no addition) and sample (−; no addition), and Control group is a case of theophylline (+; addition) and sample (−; no addition). (6) Determination of Skin-Lightening Effect The amount of a sample required for adjusting the melanogenesis inhibiting ratio to 40% or more was measured, and the effect was evaluated by the following criteria based on the measured amount. The measurement was conducted at N=4 (4 wells per sample). The skin-lightening effect is expressed as described below based on the sample concentration showing the melanogenesis inhibiting ratio of 40% or more. The measurement was conducted at N=4.

[3] = Stability test (coloration on storage); format: physicochemical; details: for Coloration, 2 weeks after / Coloration, 4 weeks after: 1% in 50% ethanol, pH 6.0 to 8.0, stored at 50° C., total points of 10 panelists
Method: Aascorbic acid, kojic acid, hydroquinone and arbutin which are known skin-lightening agents were used as comparative compounds. […] The solutions were placed in 50 mL screw tubes and closely sealed, and stored at 50° C. for 4 weeks. The degrees of coloration of the solution directly after preparation of the test sample, 2 weeks after storage and 4 weeks after storage were evaluated by 10 panelists according to the following criteria. 3: almost no change as compared with directly after preparation 2: colored as compared with directly after preparation 1: intensely colored as compared with directly after preparation The evaluation results of coloration were classified as described below.

[4] = test system: Propionibacterium acnes (JCM6415); experiment: Anti-acne test (growth in GAM bouillon medium, OD620); format: cell-based; details: sample final concentration 0.1%, 37° C., anaerobic, 48 hours
Method: Propionibacterium acnes (JCM6415: ATCC strain) was transplanted to GAM bouillon medium (manufactured by Nissui Pharmaceutical Co., Ltd.), and cultured at 37° C. under anaerobic condition for 24 hours. Thereafter, it was diluted with GAM bouillon medium so that the final bacterium concentration was OD620=0.1, and this was used as a test bacterium solution. In examples, the propyl-phenyl-ether derivative was weighed so that the final concentration was 0.1%, dissolved in GAM bouillon medium, then, filter-sterilization was performed. The resultant solution was used as a sample solution. The test bacterium solution was added in an amount of 30 μL and the sample solution was added in an amount of 120 μL to a 96-well microplate (manufactured by Sumitomo Bakelite Co., Ltd.), then, immediately, the micro plate and AnaeroPack-KENKI (manufactured by Mitsubishi Gas Chemical Co., Inc.) were placed into an anaerobic jar (manufactured by Mitsubishi Gas Chemical Co., Inc.), and culture was carried out at 37° C. under anaerobic condition for 48 hours. Thereafter, OD620 was measured by a microplate reader. The same test was conducted using methylparaben, phenoxyethanol and sodium ascorbate as comparative compounds.
The results are classified by the following criteria and shown in Table 5-Table 7. • Δ: OD620 is 0.6 or more • ◯: OD620 is 0.3-0.6 • ⊚: OD620 is 0.3 or less

Structure (SMILES) | Judgment: number of specimens confirming bacteria [1] | IC40 [2] [µM] | Coloration, 2 weeks after [3] | Coloration, 4 weeks after ([3]; 4 weeks) | Judgment: OD620 after culture [4] | Judgment: sample concentration showing the melanogenesis inhibiting ratio of 40% or more [2] | Stability in terms of coloration (in words) ([3]; summary of Table 8, 50° C., 4 weeks)
CCCC(O)CO (stereo not shown) [1,2-pentandiol, reference compound] | Δ (The number of specimens confirming bacteria was 10 or more: Δ) |  |  |  |  |  | 
OC[C@H]1O[C@@H](Oc2ccc(O)cc2)[C@H](O)[C@@H](O)[C@@H]1O [Arbutin] |  | 30 to 100 | ◯ (◯: total points of 10 panelists is 22 or more) | Δ (Δ: total points of 10 panelists is 15 to 21) |  |  | 
O=C1O[C@H]([C@@H](O)CO)C(O)=C1O [Ascorbic acid] |  | ≥ 300 | X (X: total points of 10 panelists is 14 or less) | X (X: total points of 10 panelists is 14 or less) |  |  | 
CC(C)(C)c1ccc(OCC(O)CO)cc1 (stereo not shown) [Example 1, 1,2-di-hydroxy-3-(4′-tert-butylphenoxy)propyl] | ⊚ (The number of specimens confirming bacteria was 5 or less: ⊚) |  | ◯ (◯: total points of 10 panelists is 22 or more) | ◯ (◯: total points of 10 panelists is 22 or more) | ⊚⊚ | ⊚⊚ (≦30 μmol/L: ⊚⊚) | excellent in stability in terms of coloration
CCOCC(O)COc1ccc(C(C)(C)C)cc1 (stereo not shown) [Example 3 (1-O-ethyl-2-hydroxy-3-(4′-tert-butylphenoxy)propy] [1-O-ethyl-2-hydroxy-3-(4′-tert-butylphenoxy)propyl] | ⊚ (The number of specimens confirming bacteria was 5 or less: ⊚) |  |  |  | ◯ (◯: OD620 is 0.3-0.6) | ⊚⊚ (≦30 μmol/L: ⊚⊚) | 
CCC(C)c1ccc(OCC(O)CO)cc1 (stereo not shown) [Example 5, 1,2-di-hydroxy-3-(4′-sec-butylphenoxy)propyl] | ⊚ (The number of specimens confirming bacteria was 5 or less: ⊚) |  |  |  | ◯ (◯: OD620 is 0.3-0.6) | ⊚ (30 to 100 μmol/L: ⊚) | 
CCC(C)c1ccccc1OCC(O)CO (stereo not shown) [Example 6, 1,2-di-hydroxy-3-(2′-sec-butylphenoxy)propyl] | ◯ (The number of specimens confirming bacteria was 6 to 9: ◯) | 100 to 300 |  |  | ◯ (◯: OD620 is 0.3-0.6) |  | 
CCCCCCCC(=O)OCC(COc1ccc(C(C)(C)C)cc1)OC(=O)CCCCCCC (stereo not shown) [Example 7, 1,2-di-octanoyl-3-(4′-tert-butylphenoxy) propyl] | ◯ (The number of specimens confirming bacteria was 6 to 9: ◯) |  |  |  | ◯ (◯: OD620 is 0.3-0.6) | ⊚⊚ (≦30 μmol/L: ⊚⊚) | 
Oc1ccc(O)cc1 [Hydroquinone] |  | ≥ 300 | X (X: total points of 10 panelists is 14 or less) | X (X: total points of 10 panelists is 14 or less) |  |  | 
O=c1cc(CO)occ1O [Kojic acid] |  | ≥ 300 | ◯ (◯: total points of 10 panelists is 22 or more) | Δ (Δ: total points of 10 panelists is 15 to 21) |  |  | 
